From ChEMBL document CHEMBL4308852, “GNE-371, a Potent and Selective Chemical Probe for the Second Bromodomains of Human Transcription-Initiation-Factor TFIID Subunit 1 and Transcription-Initiation-Factor TFIID Subunit 1-like” (J Med Chem, 2018) come the findings set out here.

The target in data set [1] is T1, Transcription initiation factor TFIID subunit 1 (Homo sapiens, UniProt P21675). The data set can be described thus: Inhibition of recombinant His-tagged TAF1 bromodomain 2 (unknown origin) after 10 mins by TR-FRET assay.
Data set [2] deals with T1, Transcription initiation factor TFIID subunit 1. The data set can be described thus: Inhibition of recombinant His-tagged TAF1 bromodomain 1 (unknown origin) after 10 mins by TR-FRET assay. A general note: In TR-FRET formats the signal depends on donor and acceptor labels being close together.
In data set [3] the target is T2, Bromodomain-containing protein 4 (Homo sapiens, UniProt O60885). The data set can be described thus: Inhibition of recombinant His-tagged BRD4 bromodomain 1 (unknown origin) after 10 mins by TR-FRET assay.
Another data set addresses CREB-binding protein (Homo sapiens, UniProt Q92793). The data set can be described thus: Inhibition of recombinant His-tagged CBP (unknown origin) after 10 mins by TR-FRET assay.
The target of data set [4] is T2, Bromodomain-containing protein 4. The data set is described as follows: Inhibition of recombinant His-tagged BRD4 bromodomain 2 (unknown origin) after 10 mins by TR-FRET assay.
The target of data set [5] is T3, Chromatin remodeling regulator CECR2 (Homo sapiens, UniProt Q9BXF3). The data set is described as follows: Inhibition of recombinant His-tagged CECR2 (unknown origin) after 10 mins by TR-FRET assay.
For data set [6], the target named is T2, Bromodomain-containing protein 4. Conditions: 20 uM.
For data set [7] the target is unchanged. The data set can be described thus: Binding affinity to recombinant human full length DNA-tagged BRD4 short isoform expressed in bacterial expression system by bromoscan assay.
The next data set relates to NCI-H23. The data set can be described thus: Synergistic cytotoxicity against human H23 cells assessed as reduction in cell viability at 100 nM after 48 hrs in presence of BRD4 inhibitor JQ1 by celltiter-glo assay. Format: functional, cell-based. (ATP-based viability assays read luminescence as a measure of living cells.)
Data set [8] has as its target T3, Chromatin remodeling regulator CECR2.
Data set [9] concerns the target Transcription initiation factor TFIID subunit 1-like (Homo sapiens, UniProt Q8IZX4). The data set is described as follows: Binding affinity to recombinant human full length DNA-tagged TAF1L bromodomain 2 (1523 to 1654 residues) expressed in bacterial expression system by bromoscan assay.
The nature of data set [10]: Kinetic solubility of the compound. To be noted: read-out: Kinetic_solubility. It is filed as physicochemical.

Values after ≈ are worked out from the molar mass of the structure shown. Active and inactive are the calls of the source. The calls are words filed in the database; no cut-off is given here.

T3 sequence (Q9BXF3 whole entry): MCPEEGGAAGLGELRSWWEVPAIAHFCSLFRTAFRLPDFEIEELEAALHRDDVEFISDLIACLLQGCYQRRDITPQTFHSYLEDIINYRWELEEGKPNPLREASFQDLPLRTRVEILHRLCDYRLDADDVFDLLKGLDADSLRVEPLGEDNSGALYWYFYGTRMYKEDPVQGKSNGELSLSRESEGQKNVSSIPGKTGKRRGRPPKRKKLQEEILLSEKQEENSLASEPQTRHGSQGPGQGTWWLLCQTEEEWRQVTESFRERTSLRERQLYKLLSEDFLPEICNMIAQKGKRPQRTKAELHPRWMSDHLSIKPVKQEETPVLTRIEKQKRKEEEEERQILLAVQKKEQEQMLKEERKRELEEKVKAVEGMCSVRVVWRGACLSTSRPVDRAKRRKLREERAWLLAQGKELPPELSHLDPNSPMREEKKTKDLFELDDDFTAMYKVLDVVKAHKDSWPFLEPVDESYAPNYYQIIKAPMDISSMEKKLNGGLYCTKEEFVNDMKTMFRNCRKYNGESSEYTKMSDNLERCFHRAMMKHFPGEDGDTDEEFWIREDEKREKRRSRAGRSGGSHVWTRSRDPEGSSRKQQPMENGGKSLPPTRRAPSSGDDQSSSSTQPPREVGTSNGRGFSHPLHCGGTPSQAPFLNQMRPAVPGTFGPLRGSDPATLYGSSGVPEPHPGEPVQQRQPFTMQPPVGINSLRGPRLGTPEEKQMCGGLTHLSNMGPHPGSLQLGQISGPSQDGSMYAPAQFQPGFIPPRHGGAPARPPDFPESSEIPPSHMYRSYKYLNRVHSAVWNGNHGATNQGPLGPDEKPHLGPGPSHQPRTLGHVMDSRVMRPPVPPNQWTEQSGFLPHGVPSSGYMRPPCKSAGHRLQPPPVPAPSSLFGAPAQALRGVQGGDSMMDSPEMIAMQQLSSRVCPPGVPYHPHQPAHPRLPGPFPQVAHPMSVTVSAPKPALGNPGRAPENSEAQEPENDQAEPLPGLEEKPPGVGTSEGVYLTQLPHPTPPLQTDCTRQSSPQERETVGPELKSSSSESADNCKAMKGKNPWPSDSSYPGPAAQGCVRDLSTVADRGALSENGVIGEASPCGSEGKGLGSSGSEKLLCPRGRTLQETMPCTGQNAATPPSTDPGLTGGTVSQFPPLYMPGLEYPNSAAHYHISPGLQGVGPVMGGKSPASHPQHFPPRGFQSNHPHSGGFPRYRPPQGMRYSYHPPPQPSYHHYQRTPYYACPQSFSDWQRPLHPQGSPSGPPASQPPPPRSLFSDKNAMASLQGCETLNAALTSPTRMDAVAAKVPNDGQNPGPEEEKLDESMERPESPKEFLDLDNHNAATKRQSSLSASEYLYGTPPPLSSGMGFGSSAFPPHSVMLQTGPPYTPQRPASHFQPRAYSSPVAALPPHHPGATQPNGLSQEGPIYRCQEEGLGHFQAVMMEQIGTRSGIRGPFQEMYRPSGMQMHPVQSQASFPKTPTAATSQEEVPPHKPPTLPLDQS
T1 sequence (P21675 whole entry): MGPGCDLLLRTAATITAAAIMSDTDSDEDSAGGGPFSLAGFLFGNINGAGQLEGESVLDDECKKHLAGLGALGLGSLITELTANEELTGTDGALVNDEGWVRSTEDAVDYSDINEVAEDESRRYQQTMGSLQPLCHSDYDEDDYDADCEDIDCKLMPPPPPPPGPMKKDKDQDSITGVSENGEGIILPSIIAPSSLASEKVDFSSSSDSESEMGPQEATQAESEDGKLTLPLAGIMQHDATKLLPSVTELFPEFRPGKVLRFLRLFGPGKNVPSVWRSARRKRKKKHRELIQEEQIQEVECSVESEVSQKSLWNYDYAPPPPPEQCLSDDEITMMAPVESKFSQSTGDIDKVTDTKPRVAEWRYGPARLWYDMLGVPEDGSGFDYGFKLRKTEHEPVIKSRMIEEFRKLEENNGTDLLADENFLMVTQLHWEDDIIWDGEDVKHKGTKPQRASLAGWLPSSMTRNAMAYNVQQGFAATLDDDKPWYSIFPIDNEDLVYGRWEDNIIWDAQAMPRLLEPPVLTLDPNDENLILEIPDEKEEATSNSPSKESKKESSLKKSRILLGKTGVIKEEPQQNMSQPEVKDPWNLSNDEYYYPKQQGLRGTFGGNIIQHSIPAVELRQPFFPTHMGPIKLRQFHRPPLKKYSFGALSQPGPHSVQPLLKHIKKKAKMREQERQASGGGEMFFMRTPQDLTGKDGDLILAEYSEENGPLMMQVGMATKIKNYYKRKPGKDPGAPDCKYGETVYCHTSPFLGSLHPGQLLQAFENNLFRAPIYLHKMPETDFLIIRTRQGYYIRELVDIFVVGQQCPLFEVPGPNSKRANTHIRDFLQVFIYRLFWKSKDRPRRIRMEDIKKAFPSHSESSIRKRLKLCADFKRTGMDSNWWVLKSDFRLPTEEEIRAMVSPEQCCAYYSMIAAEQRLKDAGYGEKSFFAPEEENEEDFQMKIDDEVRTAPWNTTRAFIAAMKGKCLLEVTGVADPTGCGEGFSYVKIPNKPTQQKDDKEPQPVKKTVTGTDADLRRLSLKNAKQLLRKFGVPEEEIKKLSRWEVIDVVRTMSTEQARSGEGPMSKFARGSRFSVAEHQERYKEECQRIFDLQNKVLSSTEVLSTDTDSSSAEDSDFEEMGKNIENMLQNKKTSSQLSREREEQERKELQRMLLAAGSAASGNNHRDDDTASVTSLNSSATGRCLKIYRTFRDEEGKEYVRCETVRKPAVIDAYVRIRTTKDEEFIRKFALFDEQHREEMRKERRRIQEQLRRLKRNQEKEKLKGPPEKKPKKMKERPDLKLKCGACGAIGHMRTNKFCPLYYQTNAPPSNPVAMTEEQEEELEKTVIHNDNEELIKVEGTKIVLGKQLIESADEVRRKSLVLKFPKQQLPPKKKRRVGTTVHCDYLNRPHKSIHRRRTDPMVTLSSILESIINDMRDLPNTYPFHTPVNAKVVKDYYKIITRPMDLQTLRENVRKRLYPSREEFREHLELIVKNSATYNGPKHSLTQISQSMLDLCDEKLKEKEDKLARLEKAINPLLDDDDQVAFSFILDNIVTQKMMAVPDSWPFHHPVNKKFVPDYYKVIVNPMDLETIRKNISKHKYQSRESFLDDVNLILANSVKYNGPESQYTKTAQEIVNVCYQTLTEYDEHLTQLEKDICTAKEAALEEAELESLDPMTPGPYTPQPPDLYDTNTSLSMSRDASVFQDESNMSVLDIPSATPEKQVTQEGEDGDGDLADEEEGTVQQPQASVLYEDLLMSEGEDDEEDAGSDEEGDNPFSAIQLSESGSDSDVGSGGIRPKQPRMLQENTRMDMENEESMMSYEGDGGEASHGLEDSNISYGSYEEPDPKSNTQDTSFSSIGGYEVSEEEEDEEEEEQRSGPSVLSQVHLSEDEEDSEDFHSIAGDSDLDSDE

By IC50 is commonly meant the concentration that gives 50% inhibition. `C=CCCn1cc(-c2cccc(C(=O)N(C)C3CCCCC3)c2)c2cc[nH]c2c1=O`: the concentration for half-maximal inhibition (IC50) is 0.067 µM in [1]; 13 µM in [2]; 0.75 µM in data set [3]; more than 20 µM on CREB-binding protein; 2.4 µM in [4]; 4 µM in data set [5].

As to `C=CCCn1cc(-c2cc(C#N)cc(C(=O)N3CCOCC3)c2)c2cc[nH]c2c1=O`, the figures for the IC50 in data set [3] and in data set [4] were 1.8 µM and 5 µM, respectively.

For `C=CCCn1cc(-c2cc(C(=O)N3CCOCC3)cc3[nH]cnc23)c2cc[nH]c2c1=O`, the IC50 in data set [3] and in [4] was more than 20 µM throughout.

Consider `C=CCCn1cc(-c2cc(OC(F)F)cc(C(=O)N3CCOCC3)c2)c2cc[nH]c2c1=O`, for which the IC50 stood at 0.6 µM in data set [3] and 9 µM in data set [4].

The term Kd denotes the constant that tells how readily two partners part at equilibrium. On to `C=CCCn1cc(-c2cc(C(=O)N3CCOCC3)cc3c2ncn3C)c2cc[nH]c2c1=O`, for which the inhibition entry in data set [6] was “inactive”. The Kd turned out to be 8.9 µM in data set [7], 1.2 µM in data set [8] and 0.005 µM in data set [9]. In addition, the result in the data set with NCI-H23 was Active. The IC50 in [3] is more than 20 µM; in data set [4] it was more than 20 µM; in data set [5], 1.2 µM. The solubility kinetic in data set [10] is 121 µM (≈ 52.2 µg/mL).

Consider `C=CCCn1cc(-c2cnc(OCC)c(C(=O)N3CCOCC3)c2)c2cc[nH]c2c1=O`, for which the IC50 in [1] was 0.004 µM; in data set [2] it was 5.3 µM; in data set [3], 6.3 µM; in [4], 7.6 µM; in data set [5], 0.59 µM.

For `C=CCCn1cc(-c2cnc(OC)c(C(=O)N3CCOCC3)c2)c2cc[nH]c2c1=O`, the IC50 amounted to 0.007 µM in [1]; 6.9 µM in [2]; 8.6 µM in data set [3]; 9.6 µM in [4]; 1 µM in data set [5].

With `C=CCCn1cc(-c2cc(C(=O)N3CCOCC3)c3c(c2)ncn3CC)c2cc[nH]c2c1=O`, the IC50 is 0.016 µM in [1]; more than 20 µM in [2]; 2 µM in data set [3]; 1 µM in data set [4]; 2.6 µM in data set [5].

For the molecule `C=CCCn1cc(-c2cc(C(=O)N3CCOCC3)c3ncn(CC)c3c2)c2cc[nH]c2c1=O`, the results for the IC50 in data set [3] and in data set [4] were 3.4 µM and 6.8 µM, respectively.

For the molecule `C=CCCn1cc(-c2cc(C(=O)N3CCOCC3)c3c(c2)ncn3C)c2cc[nH]c2c1=O`, the IC50 in [3] came out at 3.6 µM; in data set [4] it was 4.4 µM; in data set [5], 0.23 µM.

In the case of `C=CCCn1cc(-c2cc(F)c(F)c(C(=O)N3CCOCC3)c2)c2cc[nH]c2c1=O`, the IC50 in data set [3] was 7.9 µM; in [4], 17 µM.

Regarding `C=CCCn1cc(-c2cccc(C(=O)N3CCN(CCO)CC3)c2)c2cc[nH]c2c1=O`, the IC50 was 0.083 µM in [1]; 14 µM in data set [2]; 3.2 µM in data set [3]; more than 20 µM at CREB-binding protein; 5 µM in [4]; 1.1 µM in data set [5].

In the case of `C=CCCn1cc(-c2cc(C(=O)N3CCOCC3)c3nc[nH]c3c2)c2cc[nH]c2c1=O`, the figures for the IC50 in data set [3] and in [4] were 2.3 µM and 4.4 µM, respectively.

Turning to `C=CCCn1cc(-c2cc(C(=O)N3CCOCC3)c3ncn(C)c3c2)c2cc[nH]c2c1=O`, the IC50 in data set [3] is 8.2 µM; in data set [4], 12 µM; in data set [5], 0.36 µM.
